Data: US8415469B2, “Compounds and methods for kinase modulation, and indications therefor” (Plexxikon Inc., priority 2005, dated 2013)

Tests used:
Type in all cases: biochemical
B-Raf = target: T1, B-Raf (Homo sapiens, UniProt P15056); assay: AlphaScreen kinase assay, B-Raf; details: read-out: IC50, activity toward kinase B-Raf
T1 construct: purchased Upstate Biotechnology

FGFR1 = target: T2, FGFR1 (Homo sapiens, UniProt P11362, C488A/C584S); assay: AlphaScreen kinase assay, FGFR1; details: read-out: IC50, activity toward kinase FGFR
T2 construct: P1351.pET N6 BI-PTP FGFR A458-E765-X C488A, C584S; made in house; host or cells: E. coli (PTP1B co-expressed)

Jnk1 = target: T3, Jnk1 (Homo sapiens, UniProt P45983); assay: AlphaScreen kinase assay, Jnk1; details: read-out: IC50, activity toward kinase Jnk1
T3 construct: purchased Upstate Biotechnology

Jnk2 = target: T4, Jnk2 (Homo sapiens, UniProt P45984); assay: AlphaScreen kinase assay, Jnk2; details: read-out: IC50, activity toward kinase Jnk2
T4 construct: purchased Roche Protein Expression Group (Indianapolis, IN)
Method in brief: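 Here, phosphorylation of a biotin-tagged peptide was sensed by proximity of streptavidin donor and antibody-bearing acceptor beads. Test compounds covered 8 concentrations by 1:3 serial dilution of 20 mM DMSO stocks.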

Fms = target: T5, Fms (Homo sapiens, UniProt P07333); assay: AlphaScreen kinase assay, Fms; details: read-out: IC50, activity toward kinase Fms
T5 construct: purchased Upstate Biotechnology

Flt1 = target: T6, Flt1 (Homo sapiens, UniProt P17948); assay: AlphaScreen kinase assay, Flt1; details: read-out: IC50, activity toward kinase Flt1
T6 construct: P1826.pETN6 BI-PTP FLT1 M799-D1165-X WT; His6 (N); made in house; host or cells: E. coli (PTP1B co-expressed)
T6 sequence (P17948 with tags, fused parts or gaps): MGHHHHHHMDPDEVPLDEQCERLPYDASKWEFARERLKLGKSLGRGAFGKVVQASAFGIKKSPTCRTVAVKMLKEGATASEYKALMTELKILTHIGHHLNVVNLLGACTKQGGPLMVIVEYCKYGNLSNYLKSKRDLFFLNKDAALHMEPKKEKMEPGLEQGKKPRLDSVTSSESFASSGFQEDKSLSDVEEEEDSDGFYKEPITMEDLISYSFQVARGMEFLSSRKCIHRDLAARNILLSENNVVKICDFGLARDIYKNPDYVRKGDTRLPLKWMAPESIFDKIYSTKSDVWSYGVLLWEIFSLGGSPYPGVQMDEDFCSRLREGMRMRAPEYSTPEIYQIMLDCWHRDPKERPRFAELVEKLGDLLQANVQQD

B-Raf V600E = target: T7, B-Raf V600E (Homo sapiens, UniProt P15056, V600E); assay: AlphaScreen kinase assay, B-Raf V600E; details: read-out: IC50, activity toward kinase B-Raf V600E
T7 construct: P4254. pFastBacBD-CDC37 BRAF D437-K722-X, V600E; His6 with pFastBac HT leader (TEV site) (N); made in house; host or cells: Sf9 (baculovirus; chaperone CDC37 co-expressed)

Jnk3 = target: T8, Jnk3 (Homo sapiens, UniProt P53779); assay: AlphaScreen kinase assay, Jnk3; details: read-out: IC50, activity toward kinase Jnk3
T8 construct: purchased Upstate Biotechnology

Kit = target: T9, Kit (Homo sapiens, UniProt P10721); assay: AlphaScreen kinase assay, Kit; details: read-out: IC50, activity toward kinase Kit
T9 construct: P1332.N6 BI PTP KIT M552-K948-X COD; His6 (N); made in house; host or cells: E. coli (PTP1B co-expressed)
T9 sequence (P10721 with tags, fused parts or gaps): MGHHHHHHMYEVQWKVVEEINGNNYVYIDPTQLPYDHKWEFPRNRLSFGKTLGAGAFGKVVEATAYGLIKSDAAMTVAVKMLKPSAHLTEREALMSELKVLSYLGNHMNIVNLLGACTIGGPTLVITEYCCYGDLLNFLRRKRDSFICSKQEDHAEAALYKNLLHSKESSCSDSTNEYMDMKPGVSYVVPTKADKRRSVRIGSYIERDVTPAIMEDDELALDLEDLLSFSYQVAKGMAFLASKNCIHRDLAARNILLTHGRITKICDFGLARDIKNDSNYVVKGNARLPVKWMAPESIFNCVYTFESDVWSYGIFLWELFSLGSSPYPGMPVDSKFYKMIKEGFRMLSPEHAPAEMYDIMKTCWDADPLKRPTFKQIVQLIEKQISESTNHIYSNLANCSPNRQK

T4 sequence (P45984 whole entry): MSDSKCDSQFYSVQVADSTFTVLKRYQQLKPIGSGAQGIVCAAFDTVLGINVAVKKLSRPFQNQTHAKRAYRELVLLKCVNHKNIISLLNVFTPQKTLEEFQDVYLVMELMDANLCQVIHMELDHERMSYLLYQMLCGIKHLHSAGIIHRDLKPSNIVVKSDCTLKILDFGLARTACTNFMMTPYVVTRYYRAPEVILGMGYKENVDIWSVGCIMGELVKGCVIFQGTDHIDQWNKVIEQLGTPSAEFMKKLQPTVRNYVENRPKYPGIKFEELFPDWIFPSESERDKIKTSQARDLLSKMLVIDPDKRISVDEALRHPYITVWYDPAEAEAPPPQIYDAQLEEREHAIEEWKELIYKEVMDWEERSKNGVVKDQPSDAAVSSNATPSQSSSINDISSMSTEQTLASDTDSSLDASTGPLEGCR
T8 sequence (P53779 whole entry): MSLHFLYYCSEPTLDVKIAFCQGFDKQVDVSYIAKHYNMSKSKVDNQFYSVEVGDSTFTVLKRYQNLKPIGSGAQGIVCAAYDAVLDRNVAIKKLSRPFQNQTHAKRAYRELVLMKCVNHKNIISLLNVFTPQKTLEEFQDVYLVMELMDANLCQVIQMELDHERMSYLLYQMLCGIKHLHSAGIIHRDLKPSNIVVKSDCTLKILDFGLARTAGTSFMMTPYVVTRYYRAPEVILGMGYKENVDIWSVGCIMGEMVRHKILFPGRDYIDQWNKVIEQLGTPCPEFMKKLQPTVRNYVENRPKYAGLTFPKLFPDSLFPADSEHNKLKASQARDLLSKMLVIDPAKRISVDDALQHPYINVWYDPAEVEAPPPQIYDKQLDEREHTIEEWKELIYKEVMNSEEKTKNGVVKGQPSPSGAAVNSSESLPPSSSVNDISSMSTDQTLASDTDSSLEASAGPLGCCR
T3 sequence (P45983 whole entry): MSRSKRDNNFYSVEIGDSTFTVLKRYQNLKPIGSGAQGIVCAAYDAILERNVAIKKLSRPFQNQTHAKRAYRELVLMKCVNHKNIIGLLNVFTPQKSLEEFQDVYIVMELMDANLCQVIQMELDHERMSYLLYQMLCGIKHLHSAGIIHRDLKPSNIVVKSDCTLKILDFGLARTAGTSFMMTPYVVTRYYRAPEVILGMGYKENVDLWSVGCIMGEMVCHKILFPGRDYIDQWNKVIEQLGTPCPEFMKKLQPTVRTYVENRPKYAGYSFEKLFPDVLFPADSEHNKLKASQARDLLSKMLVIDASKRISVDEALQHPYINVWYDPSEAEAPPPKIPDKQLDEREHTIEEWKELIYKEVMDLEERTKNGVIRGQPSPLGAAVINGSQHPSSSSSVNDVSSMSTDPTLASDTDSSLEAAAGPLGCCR
T5 sequence (P07333 20-972): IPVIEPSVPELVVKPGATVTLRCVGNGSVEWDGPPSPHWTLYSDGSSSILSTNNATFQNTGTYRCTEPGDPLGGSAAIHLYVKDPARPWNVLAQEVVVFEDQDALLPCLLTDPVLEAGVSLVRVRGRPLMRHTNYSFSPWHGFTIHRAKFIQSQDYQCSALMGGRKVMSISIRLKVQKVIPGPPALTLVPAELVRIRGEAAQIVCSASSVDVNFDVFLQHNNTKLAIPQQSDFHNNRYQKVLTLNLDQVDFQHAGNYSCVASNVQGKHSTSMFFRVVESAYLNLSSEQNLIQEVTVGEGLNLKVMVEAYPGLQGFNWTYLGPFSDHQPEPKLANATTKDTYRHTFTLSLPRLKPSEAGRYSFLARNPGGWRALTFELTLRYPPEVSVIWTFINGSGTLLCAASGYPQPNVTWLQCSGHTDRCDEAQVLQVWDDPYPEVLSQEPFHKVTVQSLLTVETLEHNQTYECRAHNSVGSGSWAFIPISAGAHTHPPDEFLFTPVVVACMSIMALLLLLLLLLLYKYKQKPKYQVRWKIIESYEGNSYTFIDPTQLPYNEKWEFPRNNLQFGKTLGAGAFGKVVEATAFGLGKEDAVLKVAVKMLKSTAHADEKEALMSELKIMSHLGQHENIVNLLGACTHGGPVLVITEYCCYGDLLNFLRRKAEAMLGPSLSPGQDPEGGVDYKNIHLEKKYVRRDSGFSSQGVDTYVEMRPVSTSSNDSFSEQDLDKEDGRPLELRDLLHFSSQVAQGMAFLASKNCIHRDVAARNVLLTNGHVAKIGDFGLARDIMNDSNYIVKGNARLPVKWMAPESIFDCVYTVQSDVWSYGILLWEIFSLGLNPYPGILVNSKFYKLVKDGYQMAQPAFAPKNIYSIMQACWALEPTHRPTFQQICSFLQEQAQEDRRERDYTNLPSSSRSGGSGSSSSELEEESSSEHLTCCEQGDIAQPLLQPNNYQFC
T1 sequence (P15056 whole entry): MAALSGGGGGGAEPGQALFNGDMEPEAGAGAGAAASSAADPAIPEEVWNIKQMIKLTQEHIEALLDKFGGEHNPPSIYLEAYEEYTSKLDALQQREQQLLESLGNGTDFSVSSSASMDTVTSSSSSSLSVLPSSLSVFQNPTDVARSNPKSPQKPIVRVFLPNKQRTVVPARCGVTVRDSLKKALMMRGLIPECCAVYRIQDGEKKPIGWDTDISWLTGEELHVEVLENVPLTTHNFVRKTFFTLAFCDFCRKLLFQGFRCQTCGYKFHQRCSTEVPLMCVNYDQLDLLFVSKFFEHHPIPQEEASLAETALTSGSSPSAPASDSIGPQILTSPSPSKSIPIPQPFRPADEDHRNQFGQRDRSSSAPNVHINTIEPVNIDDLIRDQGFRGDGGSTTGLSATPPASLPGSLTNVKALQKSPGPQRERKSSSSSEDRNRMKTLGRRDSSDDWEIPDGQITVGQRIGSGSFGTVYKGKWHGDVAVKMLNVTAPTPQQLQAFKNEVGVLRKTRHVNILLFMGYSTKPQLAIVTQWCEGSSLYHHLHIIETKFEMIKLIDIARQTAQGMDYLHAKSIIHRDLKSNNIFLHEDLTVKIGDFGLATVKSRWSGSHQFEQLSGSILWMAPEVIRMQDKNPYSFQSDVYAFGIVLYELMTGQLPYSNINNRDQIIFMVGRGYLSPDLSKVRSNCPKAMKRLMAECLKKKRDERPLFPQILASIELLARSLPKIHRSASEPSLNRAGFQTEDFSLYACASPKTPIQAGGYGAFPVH
T7 sequence (P15056 with tags, fused parts or gaps V600E): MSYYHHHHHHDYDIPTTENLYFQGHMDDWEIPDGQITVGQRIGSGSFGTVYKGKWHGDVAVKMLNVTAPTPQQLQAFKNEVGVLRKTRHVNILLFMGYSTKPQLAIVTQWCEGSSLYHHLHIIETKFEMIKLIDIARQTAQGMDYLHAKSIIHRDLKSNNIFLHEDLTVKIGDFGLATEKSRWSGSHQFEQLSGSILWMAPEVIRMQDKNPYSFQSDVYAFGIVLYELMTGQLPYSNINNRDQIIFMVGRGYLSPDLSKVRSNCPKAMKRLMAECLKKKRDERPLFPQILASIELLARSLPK
T2 sequence (P11362 458-765 C488A/C584S): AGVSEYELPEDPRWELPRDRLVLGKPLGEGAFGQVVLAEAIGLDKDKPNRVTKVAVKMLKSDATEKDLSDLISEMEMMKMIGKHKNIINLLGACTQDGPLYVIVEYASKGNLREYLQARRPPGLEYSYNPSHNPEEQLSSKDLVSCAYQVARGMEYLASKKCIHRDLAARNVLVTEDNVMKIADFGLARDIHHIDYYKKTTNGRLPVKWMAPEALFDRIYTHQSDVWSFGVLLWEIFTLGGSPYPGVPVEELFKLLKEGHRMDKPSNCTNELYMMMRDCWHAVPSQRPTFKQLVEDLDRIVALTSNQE

Row | SMILES | IC50 (B-Raf) [µM] | IC50 (FGFR1) [µM] | IC50 (Jnk1) [µM] | IC50 (Jnk2) [µM] | IC50 (Fms) [µM] | IC50 (Flt1) [µM] | IC50 (B-Raf V600E) [µM] | IC50 (Jnk3) [µM] | IC50 (Kit) [µM]
1 | Cc1noc(NC(=O)Nc2cccc(C(=O)c3c[nH]c4ncc(Cl)cc34)c2)c1C [Compound P-1776, 1-[3-(5-Chloro-1H-pyrrolo[2,3-b]pyridine-3-carbonyl)-phenyl]-3-(3,4-dimethyl-isoxazol-5-yl)-urea] | ≤ 10 |  | ≤ 10 | ≤ 10 | ≤ 10 |  | ≤ 10 | ≤ 10 | ≤ 10
2 | Cc1ccc(NC(=O)Nc2cccc(C(=O)c3c[nH]c4ncc(-c5cccnc5)cc34)c2)cc1 [Compound P-1756, 1-[3-(5-Pyridin-3-yl-1H-pyrrolo[2,3-b]pyridine-3-carbonyl)-phenyl]-3-p-tolyl-urea] | ≤ 10 |  | ≤ 10 | ≤ 10 | ≤ 10 |  | ≤ 10 | ≤ 10 | 
3 | CCCCNC(=O)Nc1cccc(C(=O)c2c[nH]c3ncc(-c4cccnc4)cc23)c1Cl [Compound P-1828, 1-Butyl-3-[2-chloro-3-(5-pyridin-3-yl-1H-pyrrolo[2,3-b]pyridine-3-carbonyl)-phenyl]-urea] | ≤ 10 |  | ≤ 10 | ≤ 10 | ≤ 10 |  | ≤ 10 | ≤ 10 | 
4 | O=C(Nc1cccc(C(=O)c2c[nH]c3ncccc23)c1)Nc1ccon1 [Compound P-1764, 1-Isoxazol-3-yl-3-[3-(1H-pyrrolo[2,3-b]pyridine-3-carbonyl)-phenyl]-urea] | ≤ 10 |  | ≤ 10 | ≤ 10 | ≤ 10 |  | ≤ 10 | ≤ 10 | 
5 | CCCCCNC(=O)n1ccc2c(C(=O)c3c[nH]c4ncc(-c5cccnc5)cc34)cccc21 [Compound P-1702, 4-(5-Pyridin-3-yl-1H-pyrrolo[2,3-b]pyridine-3-carbonyl)-indole-1-carboxylic acid pentylamide] | ≤ 10 |  | ≤ 10 | ≤ 10 | ≤ 10 |  | ≤ 10 | ≤ 10 | 

More lines, now with the values ahead:

Row | IC50 (B-Raf) [µM] | IC50 (FGFR1) [µM] | IC50 (Jnk1) [µM] | IC50 (Jnk2) [µM] | IC50 (Fms) [µM] | IC50 (Flt1) [µM] | IC50 (B-Raf V600E) [µM] | IC50 (Jnk3) [µM] | IC50 (Kit) [µM] | SMILES
6 | ≤ 10 | ≤ 10 | ≤ 10 | ≤ 10 | ≤ 10 | ≤ 10 | ≤ 10 | ≤ 10 |  | CCCCNC(=O)Nc1ccc(F)c(C(=O)c2c[nH]c3ncc(-c4cccc(C(N)=O)c4)cc23)c1 [Compound P-1621, 3-{3-[5-(3-Butyl-ureido)-2-fluoro-benzoyl]-1H-pyrrolo[2,3-b]pyridin-5-yl}-benzamide]
7 | ≤ 10 |  | ≤ 10 | ≤ 10 | ≤ 10 | ≤ 10 | ≤ 10 | ≤ 10 |  | NC(=O)Nc1ccc(F)c(C(=O)c2c[nH]c3ncc(Br)cc23)c1 [Compound P-1570, [3-(5-Bromo-1H-pyrrolo[2,3-b]pyridine-3-carbonyl)-4-fluoro-phenyl]-urea]
8 | ≤ 10 | ≤ 10 | ≤ 10 | ≤ 10 | ≤ 10 | ≤ 10 | ≤ 10 | ≤ 10 |  | NC(=O)Nc1ccc(F)c(C(=O)c2c[nH]c3ncc(-c4ccccc4)cc23)c1 [Compound P-1589, [4-Fluoro-3-(5-phenyl-1H-pyrrolo[2,3-b]pyridine-3-carbonyl)-phenyl]-urea]
9 | ≤ 10 |  | ≤ 10 | ≤ 10 | ≤ 10 |  | ≤ 10 | ≤ 10 | ≤ 10 | Cc1noc(NC(=O)Nc2cccc(C(=O)c3c[nH]c4ncccc34)c2)c1C [Compound P-1767]
10 | ≤ 10 |  | ≤ 10 | ≤ 10 | ≤ 10 |  | ≤ 10 | ≤ 10 | ≤ 10 | Cc1ccccc1NC(=O)Nc1cccc(C(=O)c2c[nH]c3ncccc23)c1 [Compound P-1720, 1-[3-(1H-Pyrrolo[2,3-b]pyridine-3-carbonyl)-phenyl]-3-o-tolyl-urea]
